We go through 75 molecules from patent US8183252B2, “Heterocyclic aspartyl protease inhibitors” (Schering Corporation, priority 2007, dated 2012).

This assay has as its target T1, human BACE1 (sproBACE1) (Homo sapiens, UniProt P56817).
T1 construct: sBACE1, corresponding to amino acids 1-454; made in house; host or cells: Sf9 insect cells (baculovirus), secreted into the medium
As to the kind of experiment: BACE-1 Peptide Hydrolysis Assay (HTRF). As to conditions: read-out: BACE-1 Ki. The class given is biochemical. The source says:
A HindIII/PmeI fragment from pCDNA4-sBACE1myc/His was blunt ended using Klenow and subcloned into the Stu I site of PFASTBACI(A) (Invitrogen). A sBACE1mycHis recombinant bacmid was generated by transposition in DH10Bac cells (GIBCO/BRL). Subsequently, the sBACE1mycHis bacmid construct was transfected into sf9 cells using CellFectin (Invitrogen, San Diego, Calif.) in order to generate recombinant baculovirus. […] Five milliliters of high titer plaque purified sBACEmyc/His virus was used to infect 1 L of logarithmically growing sf9 cells for 72 hours. Intact cells were pelleted by centrifugation at 3000×g for 15 minutes. The supernatant, containing secreted sBACE1, was collected and diluted 50% v/v with 100 mM HEPES, pH 8.0. The diluted medium was loaded onto a Q-sepharose column. The Q-sepharose column was washed with Buffer A (20 mM HEPES, pH 8.0, 50 mM NaCl).
Proteins, were eluted from the Q-sepharose column with Buffer B (20 mM HEPES, pH 8.0, 500 mM NaCl). The protein peaks from the Q-sepharose column were pooled and loaded onto a Ni-NTA agarose column. The Ni-NTA column was then washed with Buffer C (20 mM HEPES, pH 8.0, 500 mM NaCl). Bound proteins were then eluted with Buffer D (Buffer C+250 mM imidazole).
Reactions were initiated by addition of substrate in a 5 μl aliquot resulting in a total volume of 25 μl. After 3 hr at 30° C. reactions were terminated by addition of an equal volume of 2× stop buffer containing 50 mM Tris-HCl pH 8.0, 0.5 M KF, 0.001% Brij-35, 20 μg/ml SA-XL665 (cross-linked allophycocyanin protein coupled to streptavidin; CIS-Bio International, France) (0.5 μg/well). Plates were shaken briefly and spun at 1200×g for 10 seconds to pellet all liquid to the bottom of the plate before the incubation.
Y=Bottom+(Top-Bottom)/(1+10^((LogEC50−X)*Hill Slope)); X is the logarithm of concentration of I, Y is the percent change in ratio and Y starts at bottom and goes to top with a sigmoid shape.

A word on the Ki: it is the dissociation constant of the complex between target and ligand, obtained from inhibition or displacement.

T1 sequence (P56817 22-454): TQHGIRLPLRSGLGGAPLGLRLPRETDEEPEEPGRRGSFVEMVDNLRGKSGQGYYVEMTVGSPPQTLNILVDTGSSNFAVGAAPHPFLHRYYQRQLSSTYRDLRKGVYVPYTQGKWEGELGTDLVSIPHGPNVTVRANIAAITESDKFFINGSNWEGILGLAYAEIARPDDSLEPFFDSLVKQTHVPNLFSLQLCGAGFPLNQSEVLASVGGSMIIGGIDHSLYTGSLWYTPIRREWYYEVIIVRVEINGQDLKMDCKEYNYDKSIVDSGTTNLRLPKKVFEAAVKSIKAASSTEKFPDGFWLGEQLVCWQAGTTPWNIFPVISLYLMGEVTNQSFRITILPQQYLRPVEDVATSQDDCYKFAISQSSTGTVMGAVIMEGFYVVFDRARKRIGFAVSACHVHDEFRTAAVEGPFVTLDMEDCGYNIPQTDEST

Turning to `CN1OCC(C)(c2cc(-c3cccc(C#N)c3)cs2)NC1=N` (stereo not drawn), the inhibitory constant (Ki) was < 5 µM. The value for `CN1C(=N)NC(C)(c2cccc(N3CCC(C#N)C3)c2)CC1=O` (stereo not drawn) was < 5 µM. With `COCC1CCCN1C(=O)c1cccc(CN2C(=N)NC(C)(c3cccc(-c4cccc(Cl)c4)c3)C2=O)c1` (stereo not drawn) the figure was < 5 µM; with `N=C1NC(c2ccccc2)(c2ccccc2)C(=O)N1CC1CCN(C(=O)Nc2cccc(F)c2)CC1`, < 5 µM; with `Cc1c(-c2ccc(F)c(C#N)c2)csc1[C@]1(C)CC(=O)N(C)C(=N)N1`, < 5 µM. For `CN1C(=N)NC(CCc2ccccc2)(CC2CCCC(Nc3ccccn3)C2)C1=O` (stereo not drawn), the Ki is < 5 µM. The value for `CN1C(=N)N[C@](CCc2ccccc2)(C[C@H]2CCC[C@@H](Nc3ccccc3)C2)C1=O` was < 5 µM.

For the molecule `Cc1ccc(CN2C(=N)NC(c3ccccc3)(c3ccccc3)C2=O)cc1`, the Ki is < 5 µM. For the molecule `CN1C(=N)N[C@](C)(C[C@H]2CCC[C@@H](Nc3ccc4ccccc4n3)C2)C1=O`, the Ki is < 5 µM. With `CN1C(=N)N[C@](C)(C[C@H]2CCC[C@@H](Nc3cnc4ccccc4n3)C2)C1=O` the figure was < 5 µM; with `N=C1NC(c2ccccc2)(c2ccccc2)C(=O)N1Cc1ccsc1`, < 5 µM. With `N=C1NC(c2ccccc2)(c2ccccc2)C(=O)N1CC1CCOCC1` the figure was < 5 µM. With `CN1C(=N)N[C@](C)(c2cc(-c3cc(Br)cc(C#N)c3)cs2)CC1=O` the figure was < 5 µM; with `CN1C(=N)N[C@](C)(c2cc(-c3cc(Cl)cc(C#N)c3)cs2)[C@H](C2CC2)C1=O`, < 5 µM; with `CN1C(=N)N[C@](C)(c2cc(-c3cc(F)cc(C#N)c3)nn2C)CC1=O`, < 5 µM. With `CN1C(=N)N[C@](C)(c2cc(-c3cccc(C#N)c3)c(Br)s2)CC1=O`, the Ki is < 5 µM. With `CCc1sc([C@@]2(C)NC(=N)N(C)C(=O)[C@@H]2CC)cc1-c1cccc(C#N)c1` the figure was < 5 µM; with `CN1C(=N)N[C@](C)(c2csc3c(-c4cccc(C#N)c4)cccc23)CC1=O`, < 5 µM; with `CN1C(=N)NC(C)(c2cc(-c3cccc(C#N)c3)cs2)C(CC=Cc2cccc(F)c2)C1=O` (stereo not drawn), < 5 µM. Take `CN1C(=N)N[C@](C)(c2cnc(-c3cccc(C#N)c3)s2)CC1=O`: the Ki was < 5 µM. For the molecule `CN1C(=N)NC(C)(c2cc(-c3cccc(C#N)c3)cs2)C(CCN2CCCCC2)C1=O` (stereo not drawn), the Ki is < 5 µM. Consider `CN1C(=N)NC(C)(c2cc(-c3cccc(C#N)c3)cs2)C(CCCc2ccccc2)(n2cccn2)C1=O` (stereo not drawn), for which the inhibitory constant (Ki) was < 5 µM. For `CCC[C@H]1C(=O)N(C)C(=N)N[C@]1(C)c1cc(-c2cccc(C#N)c2)cs1`, the Ki was < 5 µM. Consider `COc1ccc2c(c1)CC[C@@]21C(=O)N(C)C(=N)N[C@]1(C)c1cc(-c2cccc(C#N)c2)cs1`, for which the Ki is < 5 µM. In the case of `CC1(c2cccc(-c3cccc(Cl)c3)c2)NC(=N)N(CC2CCN(S(C)(=O)=O)C2)C1=O` (stereo not drawn), the Ki was < 5 µM. As for `C=C1C(=O)N(C)C(=N)N[C@]1(C)c1cccc(-c2cccc(C#N)c2)c1`, the Ki is < 5 µM. The value for `CCC[C@H]1C(=O)N(C)C(=N)N[C@]1(C)c1cccc(-c2cccc(C#N)c2)c1` was < 5 µM. The value for `CN1C(=N)N[C@](C)(c2scc(C#N)c2Cl)CC1=O` was < 5 µM; that for `COc1cncc(-c2csc(C3(C4CC4)NC(=N)N(C)C3=O)c2)c1` (stereo not drawn) was < 5 µM. With `CN1C(=N)N[C@](C)(c2cc(Br)c(-c3cncc(C#N)c3)s2)CC1=O` the figure was < 5 µM; with `CC(C)C1(c2cccc(Br)c2)NC(=N)N(C)C1=O` (stereo not drawn), < 5 µM. With `CN1C(=N)NC(c2cccc(-c3cncc(Br)c3)c2)(C2(C)CC2)C1=O` (stereo not drawn), the Ki is < 5 µM. The value for `CN1C(=N)NC(c2ccccc2)(c2cccc(-c3cccc(CO)c3)c2)C1=O` (stereo not drawn) was < 5 µM. As to `CN1C(=N)NC(c2ccc(-c3ccc(F)c(C#N)c3)s2)(C2CC2)CC1=O` (stereo not drawn), the Ki was < 5 µM. Regarding `CN1C(=N)NC(C)(c2cc(-c3ccc(F)c(C#N)c3)cs2)C(Br)C1=O` (stereo not drawn), the Ki is < 5 µM.

For `CN1C(=N)N[C@](C)(c2cc(-c3ccc(F)c(C#N)c3)cs2)[C@H](C2CCC2)C1=O`, the inhibition constant (Ki) was < 5 µM. `CN1C(=N)N[C@](C)(c2cc(-c3cncc(C#N)c3)cs2)[C@H](C2CCC2)C1=O`: the Ki is < 5 µM. The value for `CN1C(=N)N[C@](C)(c2cc(-c3cc(C#N)cc(C#N)c3)cs2)CC1=O` was < 5 µM.

Take `CN1C(=N)N[C@](C)(c2cc(C#N)cs2)[C@@H](c2ccc(C3CC3)cc2)C1=O`: the Ki is < 5 µM.

With `CN1C(=N)NC(C)(c2cccc(-c3cc(Cl)ccc3CCO)c2)C1=O` (stereo not drawn), the Ki was < 5 µM. With `CN1C(=N)NC(C)(c2cccc(-c3cc(Cl)ccc3CCOC=O)c2)C1=O` (stereo not drawn) the figure was < 5 µM; with `CN1C(=N)N[C@@](c2cccc(-c3cccnc3F)c2)(C2CC2)C1=O`, < 5 µM; with `CN1C(=N)N[C@](C)(c2ccc(-c3cccc(C(F)(F)F)c3)s2)[C@@H](C2CC2)C1=O`, < 5 µM. With `CN1C(=N)N[C@](CCC2CCCCC2)(C[C@H]2CCC[C@H](N[C@H]3CCNC3=O)C2)C1=O` the figure was < 5 µM; with `CN1C(=N)N[C@](CCC2CCCCC2)(C[C@H]2CCC[C@H](NCCc3ccccc3)C2)C1=O`, < 5 µM; with `CN1C(=N)N[C@@](c2cccc(-c3cc(Cl)cnc3F)c2)(C2CC2)C1=O`, < 5 µM. The value for `CN1C(=N)N[C@@](CCC2CCCCC2)(C[C@H]2CCC[C@@H](Nc3ccc4cccc(Cl)c4n3)C2)C1=O` was < 5 µM; that for `C[C@@]1(c2ccc3sccc3c2)CC(=O)N(CCO)C(=N)N1` was < 5 µM; that for `CN1C(=N)N[C@](C)(c2ccc3nn(CC4CCCCC4)cc3c2)CC1=O` was < 5 µM. For `CN1C(=N)N[C@](C)(c2ccc(F)cc2F)[C@@H](c2ccc(N3CCCS3(=O)=O)cc2)C1=O`, the Ki was < 5 µM. On to `CN1C(=N)N[C@](C)(c2c(F)cccc2F)[C@@H](c2ccc(C(F)(F)F)cc2)C1=O`, for which the Ki was < 5 µM. In the case of `CN1C(=N)N[C@](C)(c2ccc3c(c2)c(Br)cn3C)CC1=O`, the Ki is < 5 µM. With `CN1C(=N)N[C@](C)(c2sccc2Cl)CC1=O` the figure was < 5 µM; with `CCc1csc([C@]2(C)CC(=O)N(C)C(=N)N2)c1`, < 5 µM. Take `CC(C)Oc1cc(Cl)cc(-c2csc([C@]3(C)CC(=O)N(C)C(=N)N3)c2)c1`: the Ki was < 5 µM.

Consider `CN1C(=N)N[C@](C)(c2cc(-c3ccc(Cl)s3)cs2)CC1=O`, for which the Ki was < 5 µM. The value for `CN1C(=N)N[C@](C)(c2ncc(-c3cccc(Cl)c3)s2)CC1=O` was < 5 µM; that for `COc1ccc(Cl)c(-c2cc([C@]3(C)CC(=O)N(C)C(=N)N3)cc3ccsc23)c1` was < 5 µM.

As for `COCCN1C(=N)N[C@](C)(c2ccc3sccc3c2)CC1=O`, the Ki is < 5 µM. With `CC(C)CC(=O)Nc1cccc(CN2C(=N)NC(c3ccccc3)(c3ccccc3)C2=O)c1` the figure was < 5 µM.

In the case of `CC(C)(C)CC(=O)Nc1cccc(CN2C(=N)NC(c3ccccc3)(c3ccccc3)C2=O)c1`, the Ki was < 5 µM. For `N=C1NC(c2ccccc2)(c2ccccc2)C(=O)N1Cc1cccc(NC(=O)CC2CCCC2)c1`, the Ki is < 5 µM. With `COc1cccc(-c2cccc(C3(C)CON(C)C(=N)N3)c2)c1` (stereo not drawn) the figure was < 5 µM; with `CC(=O)N[C@@H]1CCC[C@H](C[C@@]2(CCc3ccccc3)NC(=N)N(C)C2=O)C1`, < 5 µM; with `COc1ccccc1C(=O)N[C@@H]1CCC[C@H](C[C@@]2(CCC3CCCCC3)NC(=N)N(C)C2=O)C1`, < 5 µM.

On to `CN1C(=N)N[C@](CCC2CCCCC2)(C[C@H]2CCC[C@@H](NC(=O)c3ccc4ccccc4n3)C2)C1=O`, for which the Ki is < 5 µM. As for `CN1C(=N)NC(C)(c2cccc(-c3cc(Cl)ccc3CNC(=O)c3ccnnc3)c2)C1=O` (stereo not drawn), the Ki is < 5 µM. With `CN1C(=N)NC(C)(c2cccc(-c3cc(Cl)ccc3CNC(=O)c3cccnc3)c2)C1=O` (stereo not drawn) the figure was < 5 µM. The value for `CN1C(=N)N[C@](C)(c2cccc(N3CCCC3)c2)CC1=O` was < 5 µM; that for `CN1C(=N)N[C@](C)(c2ccc3c(ccn3C)c2)CC1=O` was < 5 µM. The value for `CN1C(=N)N[C@](C)(c2ccc3c(c2)c(-c2cccs2)cn3C)CC1=O` was < 5 µM; that for `CN1C(=N)N[C@](C)(c2cccc(N3CCCCC3)c2)CC1=O` was < 5 µM; that for `CN1C(=N)N[C@](C)(c2cc(-c3cccnc3)c3sccc3c2)CC1=O` was < 5 µM. On to `CN1C(=N)N[C@](C)(c2cnn(-c3cccc(I)c3)c2)CC1=O`, for which the Ki was < 5 µM. With `COc1cccc(-c2sc([C@]3(C)CC(=O)N(C)C(=N)N3)cc2C)c1` the figure was < 5 µM.
